Measurements taken from PubChem BioAssay (NCI).
Values joined by “and” are separate entries in the source; they are usually repeats but may differ in a detail not shown here. Equal values may be shown once.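 Step 1: Grow cells in 96-well plates. Step 2: Expose to compound for 48 hours at 5 concentrations. Step 3: Interpolate endpoints linearly; if unreached, use highest concentration. Abbreviation: GI50, concentration required for 50% inhibition of growth. At the TGI there is no net growth.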

Experiments:
Test in all cases: NCI anticancer screen, dose series, 48 h
SK-OV-3 ovarian = test system: SK-OV-3 ovarian
M14 melanoma = test system: M14 melanoma
TK-10 renal = test system: TK-10 renal
U251 CNS = test system: U251 CNS
SW-620 colon = test system: SW-620 colon
A498 renal = test system: A498 renal
SK-MEL-5 melanoma = test system: SK-MEL-5 melanoma
PC-3 prostate = test system: PC-3 prostate
NCI/ADR-RES ovarian = test system: NCI/ADR-RES ovarian
BT-549 breast = test system: BT-549 breast
HL-60(TB) leukemia = test system: HL-60(TB) leukemia

Compound	TGI (SK-OV-3 ovarian) [µM]	TGI (M14 melanoma)	TGI (TK-10 renal) [µM]	TGI (U251 CNS)	TGI (SW-620 colon) [µM]	TGI (A498 renal) [µM]	TGI (SK-MEL-5 melanoma)	TGI (PC-3 prostate) [µM]	TGI (NCI/ADR-RES ovarian)	TGI (BT-549 breast)	TGI (HL-60(TB) leukemia) [µM]	GI50 (M14 melanoma)	GI50 (TK-10 renal)	GI50 (SW-620 colon)	GI50 (SK-MEL-5 melanoma)	GI50 (HL-60(TB) leukemia) [µM]
COc1cccc(-c2ccc3c4c2O[C@H]2C(=O)CC[C@@]5(O)[C@@H](C3)N(CC3CC3)CC[C@]425)c1	34.5	28.1 µM	32.2	29.9 µM	29.2	34.1	28 µM	29.2	38.8 µM	35.1 µM	40.5					
NC(N)=NCCC[C@H](N)C(=O)NCC(=O)N[C@@H](CC(=O)O)c1ncc(NC(=O)C(F)(F)F)o1	> 25	> 25 µM	> 25	> 25 µM	> 25	> 25	> 25 µM	> 25	> 25 µM	> 25 µM	> 25					
CSc1ncnc2c1ncn2C1CC(Oc2ccc(C)cc2)C(COc2ccc(C)cc2)O1 (stereo unspecified)	> 100	> 100 µM	> 100	> 100 µM	> 100	> 100	> 100 µM	> 100	> 100 µM	> 100 µM	> 100					
COc1ccc2ccccc2c1/C=C/C(=O)c1ccccc1	11.2	9.62 µM	7.45	4.98 µM	6.53	10.9	16.1 µM	13.9	> 54.8 µM	14.7 µM	4.33					
CC(C)(C)OC(=O)NC(Cc1ccc(OCc2ccccc2)cn1)C(=O)N1CCCCC1 (stereo unspecified)	> 100	> 100 µM	> 100	> 100 µM	> 100	> 100	31 µM	55.2	59.2 µM	60.7 µM	82.1					
CCOC(=O)c1cc(C(O)P2(=O)N(CC(C)(C)C)[C@@H]3CCCC[C@H]3N2CC(C)(C)C)cn1C(=O)OC(C)(C)C (stereo partly specified)	59.2	29.7 µM	57.3	29.4 µM	32.6	65.3	31.3 µM	48.5	44.6 µM	31.9 µM	48.6					
Cc1ccc2c(c1)C(C(=O)N[C@@H]1C(=O)N3[C@@H]1SC(C)(C)[C@@H]3C(=O)O)OCCC2 (stereo partly specified)	> 100	> 100 µM	> 100	> 100 µM	> 100	> 100	> 100 µM	> 100	> 100 µM	> 100 µM	> 100					
COc1ccc(C(=C(Cl)c2ccccc2)c2ccc(OC)cc2)cc1	> 100	> 100 µM	> 100	> 100 µM	> 100	> 100	> 100 µM	> 100	> 100 µM	> 100 µM	> 100					
CC1=NNC(N)=N/C1=C\C(Sc1ccc(Cl)cc1)c1ccc([N+](=O)[O-])cc1 (stereo unspecified)	> 100	> 100 µM	> 100	> 100 µM	> 100	> 100	> 100 µM	> 100	> 100 µM	> 100 µM	76.4					
COc1cc(/C=C2/C[C@H]3[C@@H]4CC=C5C[C@@H](O)CC[C@]5(C)[C@H]4CC[C@]3(C)NC2=O)cc(OC)c1OC	> 92.3	> 100 µM	> 82.1	> 60.1 µM	> 100	55	> 47.5 µM	79.4	> 65.2 µM	63 µM	> 100					
CON(C)C(=O)CNC(=O)OCC1c2ccccc2-c2ccccc21	> 100	> 100 µM	> 100	> 100 µM	> 100	> 100	> 100 µM	> 100	> 100 µM	> 100 µM	90.9					
O=C1CC(=Nc2ccc(Cl)cc2)C(c2ccccc2)N1c1ccccc1 (stereo unspecified)	51.6	33.8 µM	> 100	> 100 µM	> 100	> 100	22.8 µM	> 100	95.8 µM	41.6 µM	21.3					
CC(=O)OC(/C=C/c1ccccc1)=C(OC(C)C)/C1=C(\c2ccccc2)SCCCSC1=O	> 100	> 100 µM	> 100	> 100 µM	> 100	> 100	> 100 µM	> 100	> 100 µM	> 100 µM	> 100					
COc1cc(CNCc2cc(OC)c(OC)c(OC)c2)cc(OC)c1OC	> 10	> 10 µM	> 10	> 10 µM	> 10	> 10	> 10 µM	> 10	> 10 µM	> 10 µM	> 6.74					
CCOC(=O)N/N=C(/N)c1cccc([N+](=O)[O-])c1	> 100	> 100 µM	> 100	> 100 µM	> 100	> 100	> 100 µM	> 100	> 100 µM	> 100 µM	> 100					
CCOCc1nc2c(OC)cc(-c3nc4ccc(N5CCN(C)CC5)cc4[nH]3)c(OC)c2[nH]1	> 100	35.3 µM	> 100	> 100 µM	> 100	> 100	31.6 µM	> 100	> 100 µM	> 100 µM	21.1					
Nc1cc2[nH]c(=O)c(=O)[nH]c2cc1N	> 100		> 100	> 100 µM	> 100	> 100	> 100 µM	> 100	> 100 µM	> 100 µM	> 100					

Compound	TGI (SK-OV-3 ovarian) [µM]	TGI (M14 melanoma)	TGI (TK-10 renal) [µM]	TGI (U251 CNS)	TGI (SW-620 colon) [µM]	TGI (A498 renal) [µM]	TGI (SK-MEL-5 melanoma)	TGI (PC-3 prostate) [µM]	TGI (NCI/ADR-RES ovarian)	TGI (BT-549 breast)	TGI (HL-60(TB) leukemia) [µM]	GI50 (M14 melanoma)	GI50 (TK-10 renal)	GI50 (SW-620 colon)	GI50 (SK-MEL-5 melanoma)	GI50 (HL-60(TB) leukemia) [µM]
Cc1ccc(N=Nc2c(O)ccc3cc(S(=O)(=O)O)cc(S(=O)(=O)O)c23)cc1	> 100	> 100 µM	> 100	> 100 µM	> 100	> 100	> 100 µM	> 100	> 100 µM	> 100 µM	> 100					
Cn1cc(NC(=O)c2cc(NC(=O)CN=C(N)N)cn2C)cc1C(=O)NCCC(=N)N	> 100	> 100 µM	> 100	> 100 µM	> 100	> 100	> 100 µM	> 100	> 100 µM	> 100 µM	> 100					
C[N+](C)(C)CC1CCCCCCCCCCC1=O (stereo unspecified)	> 100	> 100 µM	> 100	> 100 µM	> 100	> 100	> 100 µM	> 100	> 100 µM	> 100 µM	> 100					
O=C1C=C(C2=CC(=O)C(=O)c3ccccc32)c2ccccc2C1=O	> 100	> 100 µM	75.4	> 100 µM	31.4	> 100	8.17 µM	37.3	> 100 µM	> 100 µM	> 100					
CSc1ccc2c(cc1=O)[C@@H](NC(=O)c1ccc(N)cc1)CCc1cc(O)c(O)c(O)c1-2	> 100	27.9 µM and 36.5 µM	> 100	57.3 µM and > 100 µM	> 100	> 100	45.5 µM and 28.7 µM	> 100	57.3 µM and 61.6 µM	38.2 µM and 52.3 µM	> 75	13.5 µM and 5.66 µM	24.2 µM and > 100 µM	18.7 µM and 8.21 µM	21.1 µM and 6.63 µM	> 75
COc1cc(Cn2c3c(c4cc(O)ccc42)Cc2ccccc2C3=O)cc(OC)c1	> 100	> 100 µM	> 100	> 100 µM	> 100	> 100	> 100 µM	> 100	66.1 µM	> 100 µM	> 100					
O=C(O)c1ccc([N+](=O)[O-])c2cc3cnccc3nc12	> 100	37.2 µM		35.6 µM		> 100	38.4 µM	34.6	80.9 µM	33.5 µM	> 100					
NN/C(=N\S(=O)(=O)c1cc2ccccc2s1)Nc1ccc(Cl)cc1	> 100	37.9 µM	51.2	34.5 µM	54.9	39.5	31.8 µM	62.4	46.4 µM	35.6 µM	48					
O=C1/C(=C/c2ccc([N+](=O)[O-])cc2)C(=O)N(c2ccccc2)C1c1ccccc1 (stereo unspecified)	> 10	> 10 µM	> 10	> 10 µM	> 10	> 10	> 10 µM	> 10	> 10 µM	> 10 µM	> 10					
O=c1cc(-c2ccc(F)cc2)[nH]c2ncc(Cl)cc12	> 100	> 100 µM	> 100	> 83.4 µM	> 100	53.6	> 100 µM	> 100	> 88 µM	> 100 µM	15.3					
Cc1cc(S(=O)(=O)N=C2N(Cc3ccccc3)CCN2Cc2ccccc2)c(S)cc1Cl	> 100	> 100 µM	> 100	> 100 µM	> 100	> 100	> 100 µM	> 100	> 100 µM	> 100 µM	> 100					
COC1=C(OC)C(=O)C(Cc2c(C)nc3sc(C)cn23)=C(C)C1=O	38.9	32.8 µM	35.6	39.7 µM	51.6	> 100	28.6 µM	68.3	36.7 µM	31.2 µM	29.8					
C=CC(CCc1ccc(C(=O)OCC)cc1)c1c(N)nc(N)[nH]c1=O (stereo unspecified)	> 100	> 100 µM	> 100	> 100 µM	> 100	> 100	> 100 µM	> 100	> 100 µM	> 100 µM	> 100					
COC[C@@H](C[C@H]1O[C@@](O)([C@H](O)[C@@H]2C[C@H](OC)[C@@H](O)CC/C=C(C)/C=C/[C@@H](O[C@@H]3O[C@@H](C)[C@H](OC)[C@@H](O)[C@@H]3O)[C@H](C)/C=C(C)/C=C(C)/C=C(\C)C(=O)O2)[C@H](C)[C@@H](O)[C@H]1C)O[C@H]1C[C@](C)(O)[C@@H](O[C@H]2C[C@@H](OC)[C@H](O)[C@@H](C)O2)C(C)O1 (stereo partly specified)	> 100	> 100 µM	> 100	> 100 µM	> 100	> 100	> 100 µM	> 100	> 100 µM	> 100 µM	> 100					
O=C1CSC(c2cccc(Oc3ccccc3)c2)N1c1ccc(Cl)cc1 (stereo unspecified)	> 100	> 100 µM	71.9	> 100 µM	> 100	47.6	25.2 µM	> 100	> 100 µM	> 100 µM	> 100					
O=C(NI1OC(=O)c2ccccc21)c1ccc(Cl)cc1	> 100	> 100 µM	> 100	> 100 µM	> 100	> 100	> 100 µM	> 100	> 100 µM	> 100 µM	> 100					
CCOc1cn(C2CC(O)C(CO)O2)c(=O)[nH]c1=O (stereo unspecified)	> 100	> 100 µM	> 100	> 100 µM	> 100	> 100	> 100 µM	> 100	> 100 µM	> 100 µM	> 100					
